# Results as given in patent US8940768B2, “Antifungal triazole derivatives” (Daewoong Pharmaceutical Co., Ltd., priority 2010, dated 2015).
# Test system: Candida albicans
# Experiment: in vitro antifungal activity (MIC80), Candida albicans
# Type: cell-based
# Details: 80% growth inhibition vs negative control, RPMI 1640, read 24 hrs after application, Table 2, read-out: Antifungal Activity (MIC80) Candida albicans
# Description: The compounds of the present invention were evaluated for inhibitory activity against yeast molds including Candida albicans, Candida glabrata, Candida krusei, Candida tropicalis, Candida parapsilosis, and Cryptococcus neoformans, and filamentous fungi including Aspergillus fumigatus, Trichophyton mentagrophytes (obtained from KCTC (Korean Collection for Type Cultures), and Trichophyton rubrum (obtained from KCCM (Korean Culture Center of Microorganisms). All the strains, but Trichophyton mentagrophytes and Trichophyton rubrum, were purchased from the ATCC (American Type Culture Collection).
# Of the strains used in this test, Candida albicans, Candida glabrata, Candida krusei, Candida tropicalis, Candida parapsilosis, Trichophyton mentagrophytes and Trichophyton rubrum were inoculated into sabouraud dextrose agars (Difco, BD-0109), Cryptococcus neoformans into a yeast mold agar (YM agar, Difco, 271210), and Aspergillus fumigatus into a malt extract agar (Difco, 211220), before incubation at 35° C. for two to ten days.
# From the agars on which the yeast molds were grown, single colonies were picked up, and each was sufficiently suspended in 5 mL of already prepared, 0.85% sterile saline. After correction of the absorbance to 0.108 at 530 nm, each of the suspensions was diluted to a ratio of 1:50 in an RPMI (Roswell park memorial institute) 1640 medium and then to a ratio of 1:20 to prepare an inoculum having a cell density of from 1.0×10^3 to 5.0×10^3CFU/mL. The cell density was adjusted into […]˜5.0×10^4 CFU/mL for Aspergillus fumigates and 0.4×10^4˜5.0×10^4 CFU/mL for both Trichophyton mentagrophytes and Trichophyton rubrum.
# The antifungal agent samples were prepared by diluting the active compounds in an RPMI 1640 medium to a serial density of from 0.0156 to 32 μg/mL. In this context, dimethylsulfoxide (DMSO) was used as an excipient at a final concentration of 1% (v/v). The serial dilutions were aliquoted at a volume of 0.1 mL and applied to 0.1 mL of the aliquots of each inoculum, followed by incubation.
# With the naked eyes, an observation was made of all of the yeast molds, but Cryptococcus neoformans 24 hrs after the application, Cryptococcus neoformans and Aspergillus fumigatus 48 hrs after the application, and Trichophyton mentagrophytes and Trichophyton rubrum five days after the application to examine whether the fungi grew or not. In addition, Alamarblue™ as used to determine the concentrations of the compounds of the present invention at which the growth of the microorganisms was 80% inhibited compared to that of the negative control. All experiments were performed in duplicate for each of the test concentration groups.
row,Structure (SMILES),MIC80
1,"C[C@@H](N1CCC(Oc2ncc(F)cn2)CC1)[C@](O)(Cn1cncn1)c1ccc(F)cc1F [Example 30, (2R,3R)-2-(2,4-difluorophenyl)-3-(4-((5-fluoropyrimidin-2-yl)oxy)piperidin-1-yl)-1-(1H-1,2,4-triazol-1-yl)butan-2-ol]",≤ 0.015 µg/mL
2,"C[C@@H](N1CCC(Nc2ccccc2)CC1)[C@](O)(Cn1cncn1)c1ccc(F)cc1F [Example 35, (2R,3R)-2-(2,4-difluorophenyl)-3-(4-(phenylamino)piperidin-1-yl)-1-(1H-1,2,4-triazol-1-yl)butan-2-ol]",≤ 0.015 µg/mL
3,"C[C@@H](N1CCC(N(C)c2ccc(C(F)(F)F)cc2)CC1)[C@](O)(Cn1cncn1)c1ccc(F)cc1F [Example 79, (2R,3R)-2-(2,4-difluorophenyl)-3-(4-(methyl(4-(trifluoromethyl)phenyl)amino)piperidin-1-yl)-1-(1H-1,2,4-triazol-1-yl)butan-2-ol]",≤ 0.015 µg/mL
4,"C[C@@H](N1CCC(Nc2ncccn2)CC1)[C@](O)(Cn1cncn1)c1ccc(F)cc1F [Example 62, (2R,3R)-2-(2,4-difluorophenyl)-3-(4-(pyrimidin-2-ylamino)piperidin-1-yl)-1-(1H-1,2,4-triazol-1-yl)butan-2-ol]",≤ 0.015 µg/mL
5,"C[C@@H](N1CCC(Nc2ncc(Br)cn2)CC1)[C@](O)(Cn1cncn1)c1ccc(F)cc1F [Example 64, (2R,3R)-3-(4-((5-bromopyrimidin-2-yl)-amino)piperidin-1-yl)-2-(2,4-difluorophenyl)-1-(1H-1,2,4-triazol-1-yl)butan-2-ol]",≤ 0.015 µg/mL
6,"C[C@@H](N(C)C1CCN(c2ccc(Cl)cc2)CC1)[C@](O)(Cn1cncn1)c1ccc(F)cc1F [Example 161, (2R,3R)-3-((1-(4-chlorophenyl)piperidin-4-yl)(methyl)amino)-2-(2,4-difluorophenyl)-1-(1H-1,2,4-triazol-1-yl)butan-2-ol]",≤ 0.015 µg/mL
7,"C[C@@H](N1CCC(N(C)c2ccc(C#N)cc2)CC1)[C@](O)(Cn1cncn1)c1ccc(F)cc1F [Example 82, 4-((1-((2R,3R)-3-(2,4-difluorophenyl)-3-hydroxy-4-(1H-1,2,4-triazol-1-yl)butan-2-yl)piperidin-4-yl)(methyl)amino)benzonitrile]",≤ 0.015 µg/mL
8,"C[C@@H](N1CCC(N(C)c2ccc(Cl)cc2)CC1)[C@](O)(Cn1cncn1)c1ccc(F)cc1F [Example 73, (2R,3R)-3-(4-((4-chlorophenyl)(methyl)amino)piperidin-1-yl)-2-(2,4-difluorophenyl)-1-(1H-1,2,4-triazol-1-yl)butan-2-ol]",≤ 0.015 µg/mL
9,"C[C@@H](OC1CCN(c2ccc(Cl)cn2)CC1)[C@](O)(Cn1cncn1)c1ccc(F)cc1F [Example 115, (2R,3R)-3-((1-(5-chloropyridin-2-yl)piperidin-4-yl)oxy)-2-(2,4-difluorophenyl)-1-(1H-1,2,4-triazol-1-yl)butan-2-ol]",≤ 0.015 µg/mL
10,"C[C@@H](OC1CCN(c2ccc(C#N)cc2)CC1)[C@](O)(Cn1cncn1)c1ccc(F)cc1F [Example 105, 4-(4-(((2R,3R)-3-(2,4-difluorophenyl)-3-hydroxy-4-(1H-1,2,4-triazol-1-yl)butan-2-yl)oxy)piperidin-1-yl)benzonitrile]",≤ 0.015 µg/mL
11,"C[C@@H](N(C)C1CCN(c2ccc(F)cc2)CC1)[C@](O)(Cn1cncn1)c1ccc(F)cc1F [Example 158, (2R,3R)-2-(2,4-difluorophenyl)-3-((1-(4-fluorophenyl)piperidin-4-yl)(methyl)amino)-1-(1H-1,2,4-triazol-1-yl)butan-2-ol]",≤ 0.015 µg/mL

# Results, then the compound that gave them:
row,MIC80,Structure (SMILES)
1,≤ 0.015 µg/mL,"C[C@@H](NC1CCN(c2ncccn2)CC1)[C@](O)(Cn1cncn1)c1ccc(F)cc1F [Example 149, (2R,3R)-2-(2,4-difluorophenyl)-3-((1-(pyrimidin-2-yl)piperidin-4-yl)amino)-1-(1H-1,2,4-triazol-1-yl)butan-2-ol]"
2,≤ 0.015 µg/mL,"C[C@@H](OC1CCN(c2ccc(C(F)(F)F)cc2)CC1)[C@](O)(Cn1cncn1)c1ccc(F)cc1F [Example 102, (2R,3R)-2-(2,4-difluorophenyl)-1-(1H-1,2,4-triazol-1-yl)-3-((1-(4-(trifluoromethyl)phenyl)piperidin-4-yl)oxy)butan-2-ol]"
3,≤ 0.015 µg/mL,"C[C@@H](OC1CCN(c2ncc(Br)cn2)CC1)[C@](O)(Cn1cncn1)c1ccc(F)cc1F [Example 120, (2R,3R)-3-((1-(5-bromopyrimidin-2-yl)piperidin-4-yl)oxy)-2-(2,4-difluorophenyl)-1-(1H-1,2,4-triazol-1-yl)butan-2-ol]"
4,≤ 0.015 µg/mL,"C[C@@H](NC1CCN(c2ccc(F)cn2)CC1)[C@](O)(Cn1cncn1)c1ccc(F)cc1F [Example 146, (2R,3R)-2-(2,4-difluorophenyl)-3-((1-(5-fluoropyridin-2-yl)piperidin-4-yl)amino)-1-(1H-1,2,4-triazol-1-yl)butan-2-ol]"
5,≤ 0.015 µg/mL,"C[C@@H](N(C)C1CCN(c2ccc(C(F)(F)F)cc2)CC1)[C@](O)(Cn1cncn1)c1ccc(F)cc1F [Example 167, (2R,3R)-2-(2,4-difluorophenyl)-3-(methyl(1-(4-(trifluoromethyl)phenyl)piperidin-4-yl)amino)-1-(1H-1,2,4-triazol-1-yl)butan-2-ol]"
6,≤ 0.015 µg/mL,"C[C@@H](OC1CCN(c2ncc(F)cn2)CC1)[C@](O)(Cn1cncn1)c1ccc(F)cc1F [Example 118, (2R,3R)-2-(2,4-difluorophenyl)-3-((1-(5-fluoropyrimidin-2-yl)piperidin-4-yl)oxy)-1-(1H-1,2,4-triazol-1-yl)butan-2-ol]"
7,≤ 0.015 µg/mL,"C[C@@H](NC1CCN(c2ccc(C#N)cc2)CC1)[C@](O)(Cn1cncn1)c1ccc(F)cc1F [Example 137, 4-(4-(((2R,3R)-3-(2,4-difluorophenyl)-3-hydroxy-4-(1H-1,2,4-triazol-1-yl)butan-2-yl)amino)piperidin-1-yl)benzonitrile]"
8,≤ 0.015 µg/mL,"C[C@@H](NC1CCN(c2ccc(Cl)cn2)CC1)[C@](O)(Cn1cncn1)c1ccc(F)cc1F [Example 147, (2R,3R)-3-((1-(5-chloropyridin-2-yl)piperidin-4-yl)amino)-2-(2,4-difluorophenyl)-1-(1H-1,2,4-triazol-1-yl)butan-2-ol]"
9,≤ 0.015 µg/mL,"C[C@@H](N(C)C1CCN(c2ccccc2)CC1)[C@](O)(Cn1cncn1)c1ccc(F)cc1F [Example 155, (2R,3R)-2-(2,4-difluorophenyl)-3-(methyl(1-phenylpiperidin-4-yl)amino)-1-(1H-1,2,4-triazol-1-yl)butan-2-ol]"
10,≤ 0.015 µg/mL,"C[C@@H](OC1CCN(c2ccccc2)CC1)[C@](O)(Cn1cncn1)c1ccc(F)cc1F [Example 90, (2R,3R)-2-(2,4-difluorophenyl)-3-((1-phenylpiperidin-4-yl)oxy)-1-(1H-1,2,4-triazol-1-yl)butan-2-ol]"
11,≤ 0.015 µg/mL,"C[C@@H](N1CCC(Nc2ccc(C#N)cc2)CC1)[C@](O)(Cn1cncn1)c1ccc(F)cc1F [Example 49, 4-((1-((2R,3R)-3-(2,4-difluorophenyl)-3-hydroxy-4-(1H-1,2,4-triazol-1-yl)butan-2-yl)piperidin-4-yl)amino)benzonitrile]"
12,≤ 0.015 µg/mL,"C[C@@H](N1CCC(Oc2ccc(Cl)cn2)CC1)[C@](O)(Cn1cncn1)c1ccc(F)cc1F [Example 26, (2R,3R)-3-(4-((5-chloropyridin-2-yl)oxy)piperidin-1-yl)-2-(2,4-difluorophenyl)-1-(1H-1,2,4-triazol-1-yl)butan-2-ol]"
